According to patent US20230148599A1, “FUNGICIDAL MIXTURES CONTAINING PYRAZOLE DERIVATIVES” (FMC Corporation, priority 2020, published 2023):

Test system: Alternaria solani
Experiment: Test F: tomato early blight, preventive spray on tomato seedlings
Assay type: in vivo
Conditions: 50 ppm, 100 = 100% disease control, 0 = no control
Summary of the method: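 Preventive test: one day after the compound spray, seedlings were inoculated with A. solani, incubated saturated at 27 °C for 48 h, then kept at 20 °C for 3 days. Test suspensions contained acetone/water 50/50 with 250 ppm PEG400 surfactant. Visual ratings run from 0 (no control) to 100 (full control).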

SMILES	Test F disease control rating [%]
COc1ccc(Nc2c(-c3ccc(F)cc3Br)c(C)nn2C)c([N+](=O)[O-])c1 [compound 52]	94
Cc1nn(C)c(Nc2c(F)cccc2[N+](=O)[O-])c1-c1c(Cl)cccc1Cl [compound 53]	98
Cc1nn(C)c(Nc2ccc(F)cc2[N+](=O)[O-])c1-c1c(Cl)cccc1Cl [compound 54]	0
Cc1nn(C)c(Nc2c(Cl)cc(Br)cc2[N+](=O)[O-])c1-c1ccc(F)cc1F [compound 55]	0
Cc1nn(C)c(Nc2c(F)cc(Br)cc2[N+](=O)[O-])c1-c1ccc(F)cc1F [compound 56]	99
Cc1nn(C)c(Nc2c(F)cc(F)cc2[N+](=O)[O-])c1-c1ccc(F)cc1F [compound 58]	99
Cc1nn(C)c(Nc2c(Cl)cc(Cl)cc2[N+](=O)[O-])c1-c1ccc(F)cc1Cl [compound 59]	92
Cc1nn(C)c(Nc2c(F)cccc2[N+](=O)[O-])c1-c1c(F)cc(F)cc1F [compound 62]	99
Cc1nn(C)c(Nc2c(F)cccc2[N+](=O)[O-])c1-c1c(F)cccc1F [compound 63]	96
COc1ccc(-c2c(C)nn(C)c2Nc2c(F)cc(F)cc2[N+](=O)[O-])c(Cl)c1 [compound 64]	99
COc1ccc(-c2c(C)nn(C)c2Nc2c(Cl)cc(Cl)cc2[N+](=O)[O-])c(Cl)c1 [compound 65]	46
COc1ccc(-c2c(C)nn(C)c2Nc2c(Cl)cc(C)cc2[N+](=O)[O-])c(Cl)c1 [compound 66]	96

Test system: Botrytis cinerea
Experiment: Test E: tomato Botrytis, preventive spray on tomato seedlings
Assay type: in vivo
Conditions: 50 ppm, 100 = 100% disease control, 0 = no control
Summary of the method: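 Preventive test: seedlings sprayed to run-off with compound in acetone/water (50/50) plus 250 ppm PEG400, inoculated one day later with B. cinerea spores. Held 48 h saturated at 20° C, then 3 days at 24° C; disease control scored visually from 0 to 100 versus controls.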

SMILES	Test E disease control rating [%]
COc1ccc(Nc2c(-c3ccc(F)cc3Br)c(C)nn2C)c([N+](=O)[O-])c1 [compound 52]	99
Cc1nn(C)c(Nc2c(F)cccc2[N+](=O)[O-])c1-c1c(Cl)cccc1Cl [compound 53]	98
Cc1nn(C)c(Nc2ccc(F)cc2[N+](=O)[O-])c1-c1c(Cl)cccc1Cl [compound 54]	21
Cc1nn(C)c(Nc2c(Cl)cc(Br)cc2[N+](=O)[O-])c1-c1ccc(F)cc1F [compound 55]	34
Cc1nn(C)c(Nc2c(F)cc(Br)cc2[N+](=O)[O-])c1-c1ccc(F)cc1F [compound 56]	99
Cc1nn(C)c(Nc2c(F)cc(F)cc2[N+](=O)[O-])c1-c1ccc(F)cc1F [compound 58]	99
Cc1nn(C)c(Nc2c(Cl)cc(Cl)cc2[N+](=O)[O-])c1-c1ccc(F)cc1Cl [compound 59]	99
Cc1nn(C)c(Nc2c(F)cccc2[N+](=O)[O-])c1-c1c(F)cc(F)cc1F [compound 62]	99
Cc1nn(C)c(Nc2c(F)cccc2[N+](=O)[O-])c1-c1c(F)cccc1F [compound 63]	100
COc1ccc(-c2c(C)nn(C)c2Nc2c(F)cc(F)cc2[N+](=O)[O-])c(Cl)c1 [compound 64]	98
COc1ccc(-c2c(C)nn(C)c2Nc2c(Cl)cc(Cl)cc2[N+](=O)[O-])c(Cl)c1 [compound 65]	16
COc1ccc(-c2c(C)nn(C)c2Nc2c(Cl)cc(C)cc2[N+](=O)[O-])c(Cl)c1 [compound 66]	98

Test system: Septoria tritici
Experiment: Test A: wheat leaf blotch, preventive spray on wheat seedlings
Assay type: in vivo
Conditions: 50 ppm, 100 = 100% disease control, 0 = no control
Summary of the method: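 Preventive test: one day after spraying seedlings to run-off (concentrations in ppm; acetone/water, 250 ppm PEG400), Septoria tritici spores applied. Scored after 48 h humid incubation at 24 °C plus 17 days at 20 °C, as percent disease control versus untreated controls (100 = full control).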

SMILES	Test A disease control rating [%]
COc1ccc(Nc2c(-c3ccc(F)cc3Br)c(C)nn2C)c([N+](=O)[O-])c1 [compound 52]	100
Cc1nn(C)c(Nc2c(F)cccc2[N+](=O)[O-])c1-c1c(Cl)cccc1Cl [compound 53]	100
Cc1nn(C)c(Nc2ccc(F)cc2[N+](=O)[O-])c1-c1c(Cl)cccc1Cl [compound 54]	100
Cc1nn(C)c(Nc2c(Cl)cc(Br)cc2[N+](=O)[O-])c1-c1ccc(F)cc1F [compound 55]	100
Cc1nn(C)c(Nc2c(F)cc(Br)cc2[N+](=O)[O-])c1-c1ccc(F)cc1F [compound 56]	100
Cc1nn(C)c(Nc2c(F)cc(F)cc2[N+](=O)[O-])c1-c1ccc(F)cc1F [compound 58]	100
Cc1nn(C)c(Nc2c(Cl)cc(Cl)cc2[N+](=O)[O-])c1-c1ccc(F)cc1Cl [compound 59]	100
Cc1nn(C)c(Nc2c(F)cccc2[N+](=O)[O-])c1-c1c(F)cc(F)cc1F [compound 62]	100
Cc1nn(C)c(Nc2c(F)cccc2[N+](=O)[O-])c1-c1c(F)cccc1F [compound 63]	100
COc1ccc(-c2c(C)nn(C)c2Nc2c(F)cc(F)cc2[N+](=O)[O-])c(Cl)c1 [compound 64]	100
COc1ccc(-c2c(C)nn(C)c2Nc2c(Cl)cc(Cl)cc2[N+](=O)[O-])c(Cl)c1 [compound 65]	94
COc1ccc(-c2c(C)nn(C)c2Nc2c(Cl)cc(C)cc2[N+](=O)[O-])c(Cl)c1 [compound 66]	100

Test system: Puccinia recondita f. sp. tritici
Experiment: Test B: wheat leaf rust, preventive spray on wheat seedlings
Assay type: in vivo
Conditions: 50 ppm, 100 = 100% disease control, 0 = no control
Summary of the method: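 Preventive test: compound in acetone/water 50/50 with 250 ppm PEG400 was sprayed onto wheat seedlings one day before inoculation with leaf rust spores. After 24 h in saturated air and 7 days in a growth chamber, both at 20 °C, disease control was scored from 0 to 100 against controls.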

SMILES	Test B disease control rating [%]
COc1ccc(Nc2c(-c3ccc(F)cc3Br)c(C)nn2C)c([N+](=O)[O-])c1 [compound 52]	100
Cc1nn(C)c(Nc2c(F)cccc2[N+](=O)[O-])c1-c1c(Cl)cccc1Cl [compound 53]	100
Cc1nn(C)c(Nc2ccc(F)cc2[N+](=O)[O-])c1-c1c(Cl)cccc1Cl [compound 54]	91
Cc1nn(C)c(Nc2c(Cl)cc(Br)cc2[N+](=O)[O-])c1-c1ccc(F)cc1F [compound 55]	99
Cc1nn(C)c(Nc2c(F)cc(Br)cc2[N+](=O)[O-])c1-c1ccc(F)cc1F [compound 56]	100
Cc1nn(C)c(Nc2c(F)cc(F)cc2[N+](=O)[O-])c1-c1ccc(F)cc1F [compound 58]	100
Cc1nn(C)c(Nc2c(Cl)cc(Cl)cc2[N+](=O)[O-])c1-c1ccc(F)cc1Cl [compound 59]	100
Cc1nn(C)c(Nc2c(F)cccc2[N+](=O)[O-])c1-c1c(F)cc(F)cc1F [compound 62]	100
Cc1nn(C)c(Nc2c(F)cccc2[N+](=O)[O-])c1-c1c(F)cccc1F [compound 63]	99
COc1ccc(-c2c(C)nn(C)c2Nc2c(F)cc(F)cc2[N+](=O)[O-])c(Cl)c1 [compound 64]	100
COc1ccc(-c2c(C)nn(C)c2Nc2c(Cl)cc(Cl)cc2[N+](=O)[O-])c(Cl)c1 [compound 65]	89
COc1ccc(-c2c(C)nn(C)c2Nc2c(Cl)cc(C)cc2[N+](=O)[O-])c(Cl)c1 [compound 66]	100

Test system: Blumeria graminis f. sp. tritici
Experiment: Test C: wheat powdery mildew, preventive spray on wheat seedlings
Assay type: in vivo
Conditions: 50 ppm, 100 = 100% disease control, 0 = no control
Excerpt: General protocol for preparing test suspensions for Tests A-F: the test compounds were first dissolved in acetone in an amount equal to 3% of the final volume and then suspended at the desired concentration (in ppm) in acetone and purified water (50/50 mix by volume) containing 250 ppm of the surfactant PEG400 (polyhydric alcohol esters). The resulting test suspensions were then used in Tests A-F.
The test suspension was sprayed to the point of run-off on wheat seedlings. The following day the seedlings were inoculated with a spore dust of Blumeria graminis f. sp. tritici, (also known as Erysiphe graminis f. sp. tritici, the causal agent of wheat powdery mildew) and incubated in a growth chamber at 20° C. for 8 days, after which time visual disease ratings were made.
A rating of 100 indicates 100% disease control and a rating of 0 indicates no disease control (relative to the controls). A dash (−) indicates the compound was not tested.

SMILES	Test C disease control rating [%]
COc1ccc(Nc2c(-c3ccc(F)cc3Br)c(C)nn2C)c([N+](=O)[O-])c1 [compound 52]	90
Cc1nn(C)c(Nc2c(F)cccc2[N+](=O)[O-])c1-c1c(Cl)cccc1Cl [compound 53]	98
Cc1nn(C)c(Nc2ccc(F)cc2[N+](=O)[O-])c1-c1c(Cl)cccc1Cl [compound 54]	93
Cc1nn(C)c(Nc2c(Cl)cc(Br)cc2[N+](=O)[O-])c1-c1ccc(F)cc1F [compound 55]	90
Cc1nn(C)c(Nc2c(F)cc(Br)cc2[N+](=O)[O-])c1-c1ccc(F)cc1F [compound 56]	100
Cc1nn(C)c(Nc2c(F)cc(F)cc2[N+](=O)[O-])c1-c1ccc(F)cc1F [compound 58]	99
Cc1nn(C)c(Nc2c(Cl)cc(Cl)cc2[N+](=O)[O-])c1-c1ccc(F)cc1Cl [compound 59]	99
Cc1nn(C)c(Nc2c(F)cccc2[N+](=O)[O-])c1-c1c(F)cc(F)cc1F [compound 62]	100
Cc1nn(C)c(Nc2c(F)cccc2[N+](=O)[O-])c1-c1c(F)cccc1F [compound 63]	86
COc1ccc(-c2c(C)nn(C)c2Nc2c(F)cc(F)cc2[N+](=O)[O-])c(Cl)c1 [compound 64]	98
COc1ccc(-c2c(C)nn(C)c2Nc2c(Cl)cc(Cl)cc2[N+](=O)[O-])c(Cl)c1 [compound 65]	56
COc1ccc(-c2c(C)nn(C)c2Nc2c(Cl)cc(C)cc2[N+](=O)[O-])c(Cl)c1 [compound 66]	98

Test system: Phakopsora pachyrhizi
Experiment: Test D: Asian soybean rust, preventive spray on soybean seedlings
Assay type: in vivo
Conditions: 50 ppm, 100 = 100% disease control, 0 = no control
Summary of the method: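 Compounds in acetone/water (50/50) with 250 ppm PEG400, dosed in ppm, sprayed to run-off on soybean seedlings; inoculated with P. pachyrhizi spores next day. Held 24 h at 22 °C in saturated air, then 8 days at 22 °C; visual rating of disease control, 0–100, relative to untreated controls.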

SMILES	Test D disease control rating [%]
COc1ccc(Nc2c(-c3ccc(F)cc3Br)c(C)nn2C)c([N+](=O)[O-])c1 [compound 52]	59
Cc1nn(C)c(Nc2c(F)cccc2[N+](=O)[O-])c1-c1c(Cl)cccc1Cl [compound 53]	0
Cc1nn(C)c(Nc2ccc(F)cc2[N+](=O)[O-])c1-c1c(Cl)cccc1Cl [compound 54]	0
Cc1nn(C)c(Nc2c(Cl)cc(Br)cc2[N+](=O)[O-])c1-c1ccc(F)cc1F [compound 55]	0
Cc1nn(C)c(Nc2c(F)cc(Br)cc2[N+](=O)[O-])c1-c1ccc(F)cc1F [compound 56]	65
Cc1nn(C)c(Nc2c(F)cc(F)cc2[N+](=O)[O-])c1-c1ccc(F)cc1F [compound 58]	36
Cc1nn(C)c(Nc2c(Cl)cc(Cl)cc2[N+](=O)[O-])c1-c1ccc(F)cc1Cl [compound 59]	96
Cc1nn(C)c(Nc2c(F)cccc2[N+](=O)[O-])c1-c1c(F)cc(F)cc1F [compound 62]	100
Cc1nn(C)c(Nc2c(F)cccc2[N+](=O)[O-])c1-c1c(F)cccc1F [compound 63]	0
COc1ccc(-c2c(C)nn(C)c2Nc2c(F)cc(F)cc2[N+](=O)[O-])c(Cl)c1 [compound 64]	97
COc1ccc(-c2c(C)nn(C)c2Nc2c(Cl)cc(Cl)cc2[N+](=O)[O-])c(Cl)c1 [compound 65]	66
COc1ccc(-c2c(C)nn(C)c2Nc2c(Cl)cc(C)cc2[N+](=O)[O-])c(Cl)c1 [compound 66]	97
